Laboratory results taken from patent publication US7816522B2, “Triazolone derivatives” (Eisai Co., Ltd., priority 2006, dated 2010).
Structures can show the parent of a compound that is named as a salt.

Target: T1, human clotting factor VIIa (Homo sapiens, UniProt P08709)
T1 construct: a human clotting factor VIIa (hereinafter, “Factor VIIa”) purified sample; purchased Enzyme Research Laboratories HFVIIa
Experiment: Inhibitory activity against clotting factor VIIa (chromogenic substrate Spectrozyme FVIIa, TF/Factor VIIa enzyme solution)
Format: biochemical
Conditions: human Factor VIIa 5 nmol/L with human TF 10 nmol/L, room temperature 40 minutes, 405 nm
Procedure, shortened: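 Human Factor VIIa (5 nmol/L) with human TF (10 nmol/L) in Tris-BSA buffer pH 7.4 containing 15 mmol/L CaCl2 and cephalin, with Spectrozyme FVIIa substrate. Reaction 40 min at room temperature; 4-nitroanilide read at 405 nm. IC50 by non-linear regression over 100 μmol/L–0.1 nmol/L.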

T1 sequence (P08709 213-466 limits assumed): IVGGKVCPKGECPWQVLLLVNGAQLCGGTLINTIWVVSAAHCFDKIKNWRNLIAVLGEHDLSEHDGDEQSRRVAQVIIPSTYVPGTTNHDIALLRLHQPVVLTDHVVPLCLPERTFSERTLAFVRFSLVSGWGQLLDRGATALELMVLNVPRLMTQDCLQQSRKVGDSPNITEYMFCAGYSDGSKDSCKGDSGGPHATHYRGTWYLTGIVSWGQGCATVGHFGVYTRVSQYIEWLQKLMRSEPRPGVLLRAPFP
T1 sequence (P08709 61-212 limits assumed): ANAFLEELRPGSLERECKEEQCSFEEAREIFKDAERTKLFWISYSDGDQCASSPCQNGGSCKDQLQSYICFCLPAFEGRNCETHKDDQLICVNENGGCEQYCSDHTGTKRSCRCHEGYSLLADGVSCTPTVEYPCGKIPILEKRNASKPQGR
T1 sequence (P13726 33-295 partner): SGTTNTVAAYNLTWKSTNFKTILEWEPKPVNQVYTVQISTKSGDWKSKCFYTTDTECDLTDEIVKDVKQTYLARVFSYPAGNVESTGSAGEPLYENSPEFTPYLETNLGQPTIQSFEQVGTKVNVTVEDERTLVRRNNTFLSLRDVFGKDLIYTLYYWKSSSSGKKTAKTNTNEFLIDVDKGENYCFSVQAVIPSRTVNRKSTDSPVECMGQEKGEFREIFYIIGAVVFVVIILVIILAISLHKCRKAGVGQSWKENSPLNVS

Compared with `COc1cc(OCCO)cc(C(Nc2ccc(C(=N)N)cc2)c2nn(-c3ncccc3N)c(=O)[nH]2)c1` (stereo not shown) [Example 207, 4-({[1-(3-Aminopyridin-2-yl)-5-oxo-4,5-dihydro-1H-[1,2,4]triazol-3-yl]-[3-(2-hydroxyethoxy)-5-methoxyphenyl]methyl}amino)benzamidine acetate], `COc1cc(O)c(F)c(C(Nc2ccc(C(=N)N)cc2)c2nn(-c3ncccn3)c(=O)[nH]2)c1` (stereo not shown) [Example 224, 4-{[(2-Fluoro-3-hydroxy-5-methoxyphenyl)-(5-oxo-1-pyrimidin-2-yl-4,5-dihydro-1H-[1,2,4]triazol-3-yl)methyl]amino}benzamidine acetate] is 2.5-fold higher in IC50: 19.9 nM for the first, 48.8 nM for the second. The first is the more potent here.

Going from `COc1cc(C(Nc2ccc(C(=N)N)cc2)c2nn(-c3ncccc3N)c(=O)[nH]2)c(F)c2c1OCCC2` (stereo not shown) [Example 209, 4-{[[1-(3-Aminopyridin-2-yl)-5-oxo-4,5-dihydro-1H-[1,2,4]triazol-3-yl]-(5-fluoro-8-methoxychroman-6-yl)methyl]amino}benzamidine trifluoroacetate] to `COc1cc(OC)c(F)c(C(Nc2ccc(C(=N)N)cc2)c2nn(-c3cccc(C(=O)O)n3)c(=O)[nH]2)c1` (stereo not shown) [Example 210, 6-{3-[(4-Carbamimidoylphenylamino)-(2-fluoro-3,5-dimethoxyphenyl)methyl]-5-oxo-4,5-dihydro-[1,2,4]triazol-1-yl}pyridine-2-carboxylic acid trifluoroacetate], the IC50 rises from 4 nM to 39.1 nM (9.8-fold). The first is the more potent here.
